Source: publication PMC10381309 (Journal of Fungi, 2023)
Converted amounts (≈) assume the structure as drawn.

Assays:
Assay type in all cases: cell-based
[1] = test system: Fonsecaea pedrosoi (CFP 00791); assay: NIH Clinical Collection screening for antifungal activity (growth inhibition, OD 530 nm); conditions: Fonsecaea pedrosoi, read-out: % Growth Inhibition
Experimental: These substances are part of the NIH Roadmap Molecular Libraries Screening Centers Network screening library, a collection of chemically diverse substances in Phase I-III clinical trials. Each substance was initially diluted to 1 mM in DMSO and stored at −20 °C until use. […] The final DMSO concentration corresponded to 0.5% v/v. The inoculum was prepared according to the protocol for filamentous fungi proposed by the European Committee on Antimicrobial Susceptibility Testing—EUCAST, with minor modifications. […] After growth, conidia were suspended in 3 mL of sterile distilled water with 0.1% Tween 20, vortexed, and the concentration adjusted to the 0.5 McFarland scale. The suspension was then diluted 1:10 in order to obtain a final working inoculum at 2–5 × 10^5 CFU/mL. Next, 100 µL of the inoculum was added to each well and the plates incubated at 35 °C for 72–96 h. Negative and positive controls consisted of culture medium alone and drug-free culture medium with the fungal inoculum previously described, respectively. Plates were read using a microplate reader (Epoch, Biotek, Wenusky, VT, USA) with a 530 nm filter to obtain the optical density. All plates were also visually read to confirm the equipment data. A calculation was performed to obtain the percentage of inhibition of fungal growth, according to the formula: (1 − (OD1/OD2)) × 100, where OD1 = optical density of the fungus in the presence of the drug; and OD2 = optical density of the growth control drug-free well.

[2] = test system: Cladophialophora carrionii (CFP 00910); assay: MIC determination (EUCAST, minor modifications); conditions: for Selectivity Index (SI): C. carrionii
Experimental: (§1) Minimum inhibitory concentrations (MICs) were determined using the method proposed by the European Committee on Antimicrobial Susceptibility Testing (EUCAST), with minor modifications. Hit drugs were serially diluted (80 μM to 0.15625 μM) in RPMI 1640 (twice concentrated, pH 7; supplemented with 2% glucose) buffered with MOPS in 96-well plates. The inoculums of all strains were prepared following the EUCAST protocol. Plates were incubated at 35 °C for 72–96 h. The MIC of the NCC substances was determined as the lowest concentration capable of inhibiting 100% of fungal growth when compared to the growth control well. MIC values were determined in duplicate.

[3] = test system: Exophiala dermatitidis (ATCC 28869); assay: MIC determination (EUCAST, minor modifications); conditions: for Selectivity Index (SI): E. dermatitidis
Experimental: as §1

[4] = test system: Exophiala heteromorpha (ATCC 28180); assay: MIC determination (EUCAST, minor modifications); conditions: for Selectivity Index (SI): E. heteromorpha
Experimental: as §1

[5] = test system: Fonsecaea nubica (CFP 00912); assay: MIC determination (EUCAST, minor modifications); conditions: for Selectivity Index (SI): F. nubica
Experimental: as §1

[6] = test system: Fonsecaea pedrosoi (CFP 00791); assay: MIC determination (EUCAST, minor modifications); conditions: for Selectivity Index (SI): F. pedrosoi
Experimental: as §1

[7] = test system: Rhinocladiela similis (CFP 00790); assay: MIC determination (EUCAST, minor modifications); conditions: for Selectivity Index (SI): R. similis
Experimental: as §1

[8] = Effect of albendazole on cell viability, MTT assay; conditions: after 96 h
Experimental: After this analysis, the effect on viability of albendazole on both HaCat (human skin keratinocyte) and Vero (monkey kidney epithelial cell) cells was evaluated by MTT assay. Firstly, the mammalian cells (5 × 10^4/well) were allowed to adhere in 96-well tissue culture plates for 4 h at 37 °C in a 5% CO2 atmosphere. Non-adherent cells were removed by washes with sterile DMEM and the wells refilled with DMEM medium supplemented with 10% FBS. The cells were then incubated with increasing concentrations of albendazole (15.62 to 750 µM) and incubated for additional 24 h and 96 h at 37 °C in a 5% CO2 atmosphere. Subsequently, the culture medium was discharged, and the formation of formazan was measured by adding MTT (5 mg/mL in PBS, 25 µg/well) and incubating the wells for 3 h in the dark at 37 °C. Wells with cells receiving only the culture medium with or without 1% DMSO were also included as positive cellular growth controls. The plates were subsequently centrifuged at 500× g for 8 min, the supernatant was removed, the pellet was dissolved in 200 µL of DMSO, and the absorbance measured in an ELISA reader at 570 nm (SpectraMax Gemini 190, Molecular Devices, CA, USA). The 50% cytotoxicity inhibitory concentration (CC50) was determined by non-linear regression analysis.

[9] = test system: Cladophialophora carrionii (CFP 00910); assay: Urease production in Christensen urea broth (OD 559 nm); conditions: C. carrionii; ½ MIC albendazole; 7 and 12 days, 37 °C
Experimental: (§2) To verify urease production, three strains: Fonsecaea pedrosoi (CFP 00791) Cladophialophora carrionii (CFP 00910), and Exophiala heteromorpha (ATCC® 28180), corresponding to the three major chromoblastomycosis agents worldwide, were cultured on PDA for seven days and further cultured in Christensen urea broth in the presence and absence of albendazole at a ½ MIC concentration. Candida albicans and Cryptococcus neoformans were used as negative and positive controls of the culture medium, respectively. In brief, fungal suspensions were adjusted to a concentration of 10^6 cells/mL and used for inoculation. A volume of 500 μL of these suspensions were inoculated into 4.5 mL of Christensen urea broth and the tubes were then incubated under agitation (150 rpm) at 37 °C. At the end of seven and 12 days of incubation, the tubes were centrifuged, and a volume of 100 μL of the supernatant was transferred to a 96-well plate; this procedure was performed in triplicate. The absorbances of the samples were read on a SpectraMax plus 384 spectrophotometer (Molecular Devices, San José, CA, USA) at 559 nm, as previously described by Almeida-Paes et al.. Results were analyzed statistically using the two-way ANOVA test with multiple comparisons. p values lower than 0.05 were considered significant.

[10] = test system: Exophiala heteromorpha (ATCC 28180); assay: as above; conditions: E. heteromorpha; ½ MIC albendazole; 7 and 12 days, 37 °C
Experimental: as §2

[11] = test system: Fonsecaea pedrosoi (CFP 00791); assay: as above; conditions: F. pedrosoi; ½ MIC albendazole; 7 and 12 days, 37 °C
Experimental: as §2

SMILES: CCCSc1ccc2nc(NC(=O)OC)[nH]c2c1 [Albendazole]
- inhibition at 10 µM [1]: 98%
- Selectivity Index (SI) ([2]; CC50 HaCat 96 h / MIC): 34.04
- Selectivity Index (SI) ([2]; CC50 Vero 24 h / MIC): 150.94
- Selectivity Index (SI) ([2]; CC50 Vero 96 h / MIC): 104.62
- MIC ([2]; Cladophialophora carrionii): 2.5 µM (≈ 0.663 µg/mL)
- Selectivity Index (SI) ([3]; CC50 HaCat 96 h / MIC): 34.04
- Selectivity Index (SI) ([3]; CC50 Vero 24 h / MIC): 150.94
- Selectivity Index (SI) ([3]; CC50 Vero 96 h / MIC): 104.62
- MIC ([3]; Exophiala dermatitidis, ATCC28869): 2.5 µM (≈ 0.663 µg/mL)
- Selectivity Index (SI) ([4]; CC50 HaCat 96 h / MIC): 34.04
- Selectivity Index (SI) ([4]; CC50 Vero 24 h / MIC): 150.94
- Selectivity Index (SI) ([4]; CC50 Vero 96 h / MIC): 104.62
- MIC ([4]; Exophiala heteromorpha, ATCC28180): 2.5 µM (≈ 0.663 µg/mL)
- Selectivity Index (SI) ([5]; CC50 HaCat 96 h / MIC): 136.16
- Selectivity Index (SI) ([5]; CC50 Vero 24 h / MIC): 603.76
- Selectivity Index (SI) ([5]; CC50 Vero 96 h / MIC): 418.49
- MIC ([5]; Fonsecaea nubica): 0.625 µM (≈ 0.166 µg/mL)
- Selectivity Index (SI) ([6]; CC50 HaCat 96 h / MIC): 68.08
- Selectivity Index (SI) ([6]; CC50 Vero 24 h / MIC): 301.88
- Selectivity Index (SI) ([6]; CC50 Vero 96 h / MIC): 209.24
- MIC ([6]; Fonsecaea pedrosoi): 1.25 µM (≈ 0.332 µg/mL)
- MIC [7]: 1.25 µM (≈ 0.332 µg/mL)
- Selectivity Index (SI) ([7]; CC50 HaCat 96 h / MIC): 68.08
- Selectivity Index (SI) ([7]; CC50 Vero 24 h / MIC): 301.88
- Selectivity Index (SI) ([7]; CC50 Vero 96 h / MIC): 209.24
- CC50 at 96 h ([8]; human, HaCat keratinocyte cells): 85.1 µM
- CC50 at 96 h ([8]; monkey, Vero kidney epithelial cells): 262 µM
- urease secretion [9]: decrease in urease secretion
- urease secretion [10]: decrease in urease secretion
- urease secretion [11]: increased secretion of urease
